Reference: patent US20220313670A1, “Methods Of Treating Fabry Disease In Patients Having Renal Impairment” (Amicus Therapeutics, Inc., priority 2019, published 2022)

What was measured:
Type in all cases: in vivo, human
[1] = eGFR (MDRD), IDMS traceable, in Fabry patients on migalastat; set-up: eGFR(MDRD), IDMS Traceable: unit not given here
Description: An estimated GFR (eGFR) is calculated from serum creatinine using an isotope dilution mass spectrometry (IDMS) traceable equation. Two of the most commonly used equations for estimating glomerular filtration rate (GFR) from serum creatinine are the Chronic Kidney Disease Epidemiology Collaboration (CKD-EPI) equation and the Modification of Diet in Renal Disease (MDRD) Study equation. Both the MDRD Study and CKD-EPI equations include variables for age, gender, and race, which may allow providers to observe that CKD is present despite a serum creatinine concentration that appears to fall within or just above the normal reference interval. The following is the IDMS-traceable MDRD Study equation (for creatinine methods calibrated to an IDMS reference method): […]

[2] = Plasma migalastat concentration in two Fabry patients with renal impairment (P1, P2; Example 3); conditions: for concentration at 0 h: human, plasma, Fabry patient P1 (moderate renal impairment), Pre-dose (0 h)
Description: Migalastat levels can be measured via methods known in the art. […] Microcentrifuge tubes containing 100 μl of the tissue homogenate or 50 μl of plasma may then be spiked with 500 ng/mL 13C d2-AT1001 HCl internal standard (manufactured by MDS Pharma Services). A 600 μl volume of 5 mM HCl in 95/5 MeOH:H2O can then be added and the tubes vortexed for 2 minutes, followed by centrifugation at 21000×g for 10 minutes at room temperature. The supernatants may then be collected into a clean, 96-well plate, diluted with 5 mM HCl in dH2O and applied to a 96-well solid phase extraction (SPE) plate (Waters Corp., Milford Mass.). […] The liquid chromatography can be conducted using an ACN:water:formate binary mobile phase system (mobile phase A: 5 mM ammonium formate, 0.5% formic acid in 95:5 ACN:water; mobile phase B: 5 mM ammonium formate, 0.5% formic acid in 5:47.5:47.5 ACN:MeOH:water) with a flow rate of 0.7 mL/minute on an Halo HILIC column (150×4.6 mm, 2.7 μm) (Advanced Materials Technology, Inc.). MS/MS analysis may be carried out under APCi positive ion mode. The same procedure may be followed for migalastat determination in plasma except without homogenization. […] A 12-point calibration curve and quality control samples may be prepared. […] To derive approximate molar concentrations, one gram of tissue may be estimated as one mL of volume.
Thus, two Fabry patients with renal impairment were evaluated. One patient (P1) had moderate renal impairment, while the other patient (P2) had severe renal impairment. […] The comparison with the results from the FACETS study allows for comparison of PK in the Fabry population with mostly normal, but some mild and a few moderately impaired Fabry patients. None had severe renal impairment because these patients were excluded from the study.

[3] = Highest recorded migalastat exposure in a Fabry patient after a single dose of 450 mg; conditions: single dose of 450 mg
Text: FIGS. 2A-D show the mean simulation plots for each regimen.

lyso-Gb3 = assay: Plasma lyso-Gb3 in Fabry patients on migalastat
Text: In further embodiments, the method further comprises measuring lyso-Gb3 in one or more plasma samples from the patient. A first baseline lyso-Gb3 level may be determined during the first time period. As used herein, “baseline lyso-Gb3 level” refers to the lowest plasma lyso-Gb3 value measured during a given time period or dosing regimen. […] Thus, in further embodiments, the administration of the second time period is begun after an increase (e.g., of at least about 20, 25, 30, 33, 35, 40, 45 or 50% and/or 1, 1.25, 1.5, 1.75, 2, 2.25, 2.5 or 3 nM) above the first baseline lyso-Gb3 level is measured. […] Lyso-Gb3 levels may be measured at varying frequencies (e.g., about once every 2, 3, 4 or 5 months). It is thought that it takes about 3 months for a baseline lyso-Gb3 level to be established once a dosing regimen has been started.
Lyso-Gb3 can be measured via methods known in the art using validated assays. […] For example, one process of measuring plasma lyso-Gb3 is described in Hamler, Rick, et al. “Accurate quantitation of plasma globotriaosylsphingosine (lyso-Gb3) in normal individuals and Fabry disease patients by liquid chromatography—tandem mass spectrometry (LC—MS/MS).” Molecular Genetics and Metabolism, Volume 114.2 (2015):S51. In one or more embodiments, lyso-Gb3 is measured in samples from a patient's urine.

[4] = Fabry patient P1, 18 Month Visit
[5] = Fabry patient P1, 24 Month Visit
[6] = Fabry patient P1, 34-Month Visit
[7] = Fabry patient P3, August 2014, QOD
[8] = Fabry patient P3, August 2017, Q4D
[9] = Fabry patient P3, February 2014, QOD
[10] = Fabry patient P3, February 2018, Q7D
[11] = Fabry patient P3, January 2018, Q7D
[12] = Fabry patient P3, June 2015, QOD
[13] = Fabry patient P3, March 2011, QOD
[14] = Fabry patient P3, March 2016, QOD
[15] = Fabry patient P3, May 2017, Q4D
[16] = Fabry patient P3, November 2017, Q4D
[17] = Fabry patient P3, September 2010, QOD
[18] = Fabry patient P3, September 2015, QOD
[19] = Fabry patient P1, moderate renal impairment

Which “eGFR(MDRD), IDMS Traceable” value [1, 4] does the source give for `OC[C@H]1NC[C@H](O)[C@@H](O)[C@H]1O` [migalastat, (2R,3S,4R,55)-2-(hydroxymethyl) piperdine-3,4,5-triol] here?
Its value is 42.

What about the “eGFR(MDRD), IDMS Traceable” value [1, 5] of the same compound?
Its value is 37.

What about the “eGFR(MDRD), IDMS Traceable” value [1, 6] of the same compound?
Its value is 32.

What about the eGFR ([1]; Fabry patient P3, Aug ′15) of the same compound?
Its eGFR is 32 mL/min/1.73 m^2.

And the eGFR ([1]; Fabry patient P3, Aug ′17)?
The eGFR was 19 mL/min/1.73 m^2.

And the “eGFR(MDRD), IDMS Traceable” value [1, 7]?
Its value is 37.

And the “eGFR(MDRD), IDMS Traceable” value [1, 8]?
The value was 19.

What about the “eGFR(MDRD), IDMS Traceable” value [1, 9] of the same compound?
Its value is 42.

And the “eGFR(MDRD), IDMS Traceable” value [1, 10]?
Its value is 13.

And the “eGFR(MDRD), IDMS Traceable” value [1, 11]?
The value was 13.

And the “eGFR(MDRD), IDMS Traceable” value [1, 12]?
The value was 32.

What about the eGFR ([1]; Fabry patient P3, Mar ′11) of the same compound?
The eGFR was 59 mL/min/1.73 m^2.

And the “eGFR(MDRD), IDMS Traceable” value [1, 13]?
The value was 59.

What about the “eGFR(MDRD), IDMS Traceable” value [1, 14] of the same compound?
Its value is 28.

And the “eGFR(MDRD), IDMS Traceable” value [1, 15]?
The value was 21.

What about the eGFR ([1]; Fabry patient P3, May ′17) of the same compound?
Its eGFR is 21 mL/min/1.73 m^2.

What about the eGFR ([1]; Fabry patient P3, Nov ′17) of the same compound?
The eGFR was 15 mL/min/1.73 m^2.

And the “eGFR(MDRD), IDMS Traceable” value [1, 16]?
Its value is 15.

What about the “eGFR(MDRD), IDMS Traceable” value [1, 17] of the same compound?
Its value is 54.

And the “eGFR(MDRD), IDMS Traceable” value [1, 18]?
The value was 33.

What about the “increase of C48h concentration over 6 months” value [2, 19] of the same compound?
Its value is 49%.

And the “increase of Cmax over 6 months” value [2, 19]?
The value was 33%.

And the concentration at 0 h ([2]; Migalastat Conc 6 months later)?
Its concentration at 0 h is 36.4 ng/mL.

What about the concentration at 0 h ([2]; Migalastat Conc, first set) of the same compound?
Its concentration at 0 h is 19.9 ng/mL.

What about the “highest exposure of migalastat in a Fabry patient” value [3] of the same compound?
Its value is 53035 ng·h/mL.

And the Lyso-Gb3 (lyso-Gb3; [4])?
Its Lyso-Gb3 is 11.1 nM/L.

And the Lyso-Gb3 (lyso-Gb3; [5])?
Its Lyso-Gb3 is 13.1 nM/L.

And the Lyso-Gb3 (lyso-Gb3; Fabry patient P1, 30 Month Visit)?
The Lyso-Gb3 was 10.8 nM/L.

What about the Lyso-Gb3 (lyso-Gb3; [6]) of the same compound?
The Lyso-Gb3 was 9.3 nM/L.

What about the “change of plasma lyso-Gb3 from previous visits” value (lyso-Gb3; Fabry patient P1, decline in renal function to eGFR of 32 mL/min/1.73 m^2) of the same compound?
Its value is “has not shown clinically relevant changes”.

And the Lyso-Gb3 (lyso-Gb3; [7])?
The Lyso-Gb3 was 13.10 nmol/L.

And the Lyso-Gb3 (lyso-Gb3; [8])?
The Lyso-Gb3 was 9.85 nmol/L.

What about the Lyso-Gb3 (lyso-Gb3; [9]) of the same compound?
Its Lyso-Gb3 is 11.10 nmol/L.

What about the Lyso-Gb3 (lyso-Gb3; Fabry patient P3, February 2015, QOD) of the same compound?
Its Lyso-Gb3 is 10.80 nmol/L.

And the Lyso-Gb3 (lyso-Gb3; [10])?
The Lyso-Gb3 was 7.04 nmol/L.

What about the Lyso-Gb3 (lyso-Gb3; [11]) of the same compound?
The Lyso-Gb3 was 9.04 nmol/L.

What about the Lyso-Gb3 (lyso-Gb3; [12]) of the same compound?
The Lyso-Gb3 was 9.30 nmol/L.

What about the Lyso-Gb3 (lyso-Gb3; [13]) of the same compound?
The Lyso-Gb3 was 24.15 nmol/L.

And the Lyso-Gb3 (lyso-Gb3; [14])?
The Lyso-Gb3 was 8.46 nmol/L.

What about the Lyso-Gb3 (lyso-Gb3; [15]) of the same compound?
Its Lyso-Gb3 is 13.10 nmol/L.

And the Lyso-Gb3 (lyso-Gb3; [16])?
Its Lyso-Gb3 is 8.55 nmol/L.

What about the Lyso-Gb3 (lyso-Gb3; [17]) of the same compound?
Its Lyso-Gb3 is 27.30 nmol/L.

And the Lyso-Gb3 (lyso-Gb3; [18])?
Its Lyso-Gb3 is 7.36 nmol/L.
